Laboratory results as given in patent publication US8501446B2 (Vertex Pharmaceuticals Incorporated, priority 2004, dated 2013).

How the values were obtained:
Format in all cases: biochemical
[1] = biological target: T1, full length Aurora-A (AA 1-403) (Homo sapiens, UniProt O14965); assay: Aurora-A inhibition assay, standard coupled enzyme system; details: average Ki if more than one value determined
T1 construct: full length Aurora-A (AA 1-403)
T1 sequence (O14965 1-403): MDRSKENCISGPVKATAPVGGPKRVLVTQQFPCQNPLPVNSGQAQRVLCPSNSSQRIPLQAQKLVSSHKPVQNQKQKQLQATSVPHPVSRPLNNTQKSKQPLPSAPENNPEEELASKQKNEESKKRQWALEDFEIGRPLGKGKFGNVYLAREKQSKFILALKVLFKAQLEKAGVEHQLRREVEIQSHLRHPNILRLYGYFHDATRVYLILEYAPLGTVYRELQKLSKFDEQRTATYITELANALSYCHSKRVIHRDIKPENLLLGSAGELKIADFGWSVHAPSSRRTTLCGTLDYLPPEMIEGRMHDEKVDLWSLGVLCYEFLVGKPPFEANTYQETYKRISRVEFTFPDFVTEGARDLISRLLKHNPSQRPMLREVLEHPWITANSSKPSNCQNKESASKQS

ROCK I (AA 6-553) = biological target: T2, ROCK I (AA 6-553) (Homo sapiens, UniProt Q13464); assay: ROCK inhibition assay, standard coupled enzyme system ("Enzyme"); details: enzyme-linked assay
T2 construct: ROCK I (AA 6-553)
T2 sequence (Q13464 6-553, species assumed): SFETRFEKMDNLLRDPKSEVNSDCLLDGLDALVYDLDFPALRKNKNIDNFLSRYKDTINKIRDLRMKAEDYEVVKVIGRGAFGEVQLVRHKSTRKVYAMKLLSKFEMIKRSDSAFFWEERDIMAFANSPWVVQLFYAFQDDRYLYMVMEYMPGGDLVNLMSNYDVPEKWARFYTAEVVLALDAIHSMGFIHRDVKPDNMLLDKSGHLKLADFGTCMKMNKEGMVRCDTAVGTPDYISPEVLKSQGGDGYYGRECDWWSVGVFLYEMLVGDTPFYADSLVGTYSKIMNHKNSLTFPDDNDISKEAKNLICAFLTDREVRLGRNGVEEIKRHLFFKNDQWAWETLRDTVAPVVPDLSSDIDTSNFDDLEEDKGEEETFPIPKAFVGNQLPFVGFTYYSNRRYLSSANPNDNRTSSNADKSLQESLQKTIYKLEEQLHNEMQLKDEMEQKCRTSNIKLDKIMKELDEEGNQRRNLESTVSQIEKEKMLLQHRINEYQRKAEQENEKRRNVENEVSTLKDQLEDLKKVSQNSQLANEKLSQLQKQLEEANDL
In short: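 ROCK I (AA 6-553) at 45 nM and 30 °C with 45 μM ATP and 200 μM peptide, in 100 mM HEPES pH 7.5, 10 mM MgCl2, 25 mM NaCl, 2 mM DTT, 1.5% DMSO. ADP output read by a PK/LDH coupled system: 2.5 mM PEP, 350 μM NADH, 30 μg/ml PK, 10 μg/ml LDH.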

Aurora-B = Aurora-B (Homo sapiens, UniProt Q96GD4); assay: Aurora-B inhibition assay, radioactive assay; details: average Ki if more than one value determined
Chain of Aurora-B (Q96GD4 whole entry): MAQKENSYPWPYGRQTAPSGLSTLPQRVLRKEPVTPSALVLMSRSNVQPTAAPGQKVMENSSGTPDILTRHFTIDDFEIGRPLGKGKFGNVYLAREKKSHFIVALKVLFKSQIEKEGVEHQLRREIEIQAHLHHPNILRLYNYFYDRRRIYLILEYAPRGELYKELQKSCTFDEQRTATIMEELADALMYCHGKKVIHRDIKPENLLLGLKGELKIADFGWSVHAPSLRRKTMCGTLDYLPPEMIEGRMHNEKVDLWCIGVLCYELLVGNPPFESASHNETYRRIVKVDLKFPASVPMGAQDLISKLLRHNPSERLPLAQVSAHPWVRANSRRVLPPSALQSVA
Description: Compounds were screened for their ability to inhibit JAK3 using a standard radioactive enzyme assay. 1.5 μL/well of a DMSO stock containing serial dilutions of a compound of the present invention (concentrations ranging from 667 μM to 46 nM) was placed in a 96 well polycarbonate plate. 50 μL per well of kinase buffer (100 mM HEPES (pH 7.4), 10 mM MgCl2, 25 mM NaCl, 1 mM DTT, and 0.01% bovine serum albumin (BSA)) containing 2 μM poly(Glu)4Tyr and 10 μM ATP was also added to the plate. To initiate the reaction, 50 μL kinase buffer containing 2 nM JAK3 enzyme was added. Final ATP concentration was 5 μM [γ-^33P] ATP (200 μCi ^33P ATP/μmol ATP (Perkin Elmer, Cambridge, Mass.). After 20 minutes at room temperature (25° C.), the reaction was stopped by adding 50 μL 20% trichloroacetic acid (TCA)/0.4 mM ATP to each well. The entire content of each well was then transferred to a 96 well glass fiber filter plate using a TomTek Cell Harvester. After washing, 60 μL scintillation fluid was added and ^33P incorporation detected using a Perkin Elmer TopCount. After removing mean background values for all of the data points the data was fit using Prism software to obtain a Ki(app). Inhibition of JAK2 was measured as above except that final poly(Glu)4Tyr concentration was 15 μM and final ATP concentration was 12 μM.
Some compounds were screened for their ability to inhibit ROCK using a standard radioactive enzyme assay. Assays were carried out in a solution containing 100 mM HEPES (pH 7.5), 10 mM MgCl2, 25 mM NaCl, 2 mM DTT, and 1.5% DMSO. Final substrate concentrations in the assay were 13 μM [γ-^33P] ATP (25 mCi ^33P ATP/mmol ATP, Perkin Elmer, Cambridge, Mass./Sigma Chemicals, St Louis, Mo.) and 27 μM Myelin Basic Protein (MBP). Final enzyme concentration in the assay was 5 nM ROCK. Assays were carried out at room temperature. 1.5 μl of DMSO stock containing serial dilutions of the compound of the present invention (concentrations ranging from 10 μM to 2.6 nM) was placed in a 96 well plate. 50 μl of Solution 1 (100 mM HEPES (pH 7.5), 10 mM MgCl2, […]) was added to the plate. The reaction was initiated by addition of 50 μl of Solution 2 (100 mM HEPES (pH 7.5), 10 mM MgCl2, 4 mM DTT, […] and 10 nM ROCK). After 2 hours the reaction was quenched with 50 μL of 30% trichloroacetic acid (TCA, Fisher) containing 9 mM ATP. Transfer of 140 μL of the quenched reaction to a glass fiber filter plate (Corning, Cat. No. 3511) was followed by washing 3 times with 5% TCA. 50 μL of Optima Gold scintillation fluid (Perkin Elmer) was added and the plates were counted on a Top Count (Perkin Elmer). After removing mean background values for all of the data points the data was fit using Prism software to obtain a Ki(app).
An assay stock buffer solution was prepared containing all of the reagents listed above with the exception of ATP and the test compound of interest. The assay stock buffer solution (60 μl) was incubated in a 96 well plate with 2 μl of the test compound of interest at final concentrations spanning 0.002 μM to 30 μM at 30° C. for 10 min. Typically, a 12 point titration was conducted by preparing serial dilutions (from 1 mM compound stocks) with DMSO of the test compounds in daughter plates. The reaction was initiated by the addition of 5 μl of ATP (final concentration 200 μM). Rates of reaction were obtained using a Molecular Devices Spectramax plate reader (Sunnyvale, Calif.) over 10 min at 30° C. The Ki values were determined from the rate data as a function of inhibitor concentration using computerized nonlinear regression (Prism 3.0, Graphpad Software, San Diego, Calif.). Aurora-C activity was screened in a similar manner using Aurora-C protein. Aurora-B activity was screened using a radioactive assay, such as described in Examples 1 and 2, but using Aurora-B protein.

| SMILES | Ki [1] | Ki (ROCK I (AA 6-553)) | Ki (Aurora-B) |
| --- | --- | --- | --- |
| Clc1cnc2[nH]cc(-c3cccc(NC4CCCCCC4)n3)c2c1 [Compound 291] | < 500 nM | 500 to 5000 nM | 500 to 5000 nM |
| Cc1ccccc1Nc1nc(-c2c[nH]c3ncc(Cl)cc23)ncc1F [Compound 299] | < 500 nM | < 500 nM | < 500 nM |
| Cc1cccc(C)c1Nc1nc(-c2c[nH]c3ncc(Cl)cc23)ncc1F [Compound 300] | < 500 nM | < 500 nM | < 500 nM |
| Fc1cnc(-c2c[nH]c3ncc(Cl)cc23)nc1N[C@H]1CCc2ccccc21 [Compound 302] | < 500 nM | 500 to 5000 nM | < 500 nM |
| COc1cccc([C@H](C)Nc2nc(-c3c[nH]c4ncc(Cl)cc34)ncc2F)c1 [Compound 305] | < 500 nM | 500 to 5000 nM | < 500 nM |
| C[C@@H](Nc1nc(-c2c[nH]c3ncc(Cl)cc23)ncc1F)c1ccc([N+](=O)[O-])cc1 [Compound 310] | < 500 nM | 500 to 5000 nM | < 500 nM |
| CC(C)Nc1nc(-c2c[nH]c3ncc(Cl)cc23)ncc1F [Compound 315] | < 500 nM | 500 to 5000 nM | 500 to 5000 nM |
| Cc1cnc(-c2c[nH]c3ncc(Cl)cc23)nc1N[C@@H](C)c1ccc(F)cc1 [Compound 322] | < 500 nM | 500 to 5000 nM | < 500 nM |
| Fc1cnc(-c2c[nH]c3ncc(Cl)cc23)nc1NC1CCCc2ccccc21 (centres unmarked) [Compound 330] | < 500 nM | 500 to 5000 nM | < 500 nM |
| C[C@H](Nc1nc(-c2c[nH]c3ncc(Cl)cc23)ncc1F)c1cccc(OCCO)c1 [Compound 341] | < 500 nM | 500 to 5000 nM | < 500 nM |
| CC[C@H](Nc1nc(-c2c[nH]c3ncc(Cl)cc23)ncc1F)c1ccccc1 [Compound 354] | < 500 nM | 500 to 5000 nM | < 500 nM |
| C[C@H](Nc1nc(-c2c[nH]c3ncc(Cl)cc23)ncc1F)c1cccc(OC(=O)NO)c1 [Compound 375] | < 500 nM | 500 to 5000 nM | < 500 nM |
| CNC(=O)[C@@H](Nc1nc(-c2c[nH]c3ncc(Cl)cc23)ncc1F)C(C)(C)C [Compound 385] | < 500 nM | 500 to 5000 nM | < 500 nM |
| CNC(=O)[C@H](COC)Nc1nc(-c2c[nH]c3ncc(Cl)cc23)ncc1F [Compound 388] | < 500 nM | 500 to 5000 nM | < 500 nM |
| C[C@H](Nc1nc(-c2c[nH]c3ncc(Cl)cc23)c(F)cc1C(=O)O)c1ccc(F)cc1 [Compound 397] | < 500 nM | 500 to 5000 nM | < 500 nM |
| C[C@H](Nc1nc(-c2c[nH]c3ncc(Cl)cc23)nc2ccccc12)c1ccc(F)cc1 [Compound 404] | < 500 nM | 500 to 5000 nM | 500 to 5000 nM |
| C[C@H](Nc1nc(-c2c[nH]c3ncc(Cl)cc23)ncc1F)C(=O)NC1CCCCC1 [Compound 406] | < 500 nM | 500 to 5000 nM | 500 to 5000 nM |
| C[C@H](Nc1ccnc(-c2c[nH]c3ncc(Cl)cc23)n1)C(=O)NCC(F)(F)F [Compound 413] | < 500 nM | 500 to 5000 nM | < 500 nM |

| SMILES | Ki [1] | Ki (ROCK I (AA 6-553)) | Ki (Aurora-B) |
| --- | --- | --- | --- |
| C[C@H](Nc1cc(N2CCN(C)CC2)nc(-c2c[nH]c3ncc(Cl)cc23)n1)C(=O)NCC(F)(F)F [Compound 414] | 500 to 5000 nM | 500 to 5000 nM | 500 to 5000 nM |
| C[C@H](Nc1cc(N2CCN(C(=O)OC(C)(C)C)CC2)nc(-c2c[nH]c3ncc(Cl)cc23)n1)C(=O)NCC(F)(F)F [Compound 415] | < 500 nM | 500 to 5000 nM | < 500 nM |
| C[C@H](Nc1cc(N2CCNCC2)nc(-c2c[nH]c3ncc(Cl)cc23)n1)C(=O)NCC(F)(F)F [Compound 416] | < 500 nM | 500 to 5000 nM | 500 to 5000 nM |
| C[C@H](Nc1cc(NCCO)nc(-c2c[nH]c3ncc(Cl)cc23)n1)C(=O)NCC(F)(F)F [Compound 417] | < 500 nM | 500 to 5000 nM | < 500 nM |
| C[C@H](Nc1nc(-c2c[nH]c3ncc(Cl)cc23)ncc1C(F)(F)F)C(=O)NCC(F)(F)F [Compound 418] | < 500 nM | 500 to 5000 nM | < 500 nM |
| O=C(CNc1nc(-c2c[nH]c3ncc(Cl)cc23)ncc1C(F)(F)F)NCC(F)(F)F [Compound 421] | < 500 nM | 500 to 5000 nM | 500 to 5000 nM |
| C[C@H](Nc1nc(-c2c[nH]c3ncc(Cl)cc23)ncc1[N+](=O)[O-])c1ccc(F)cc1 [Compound 422] | < 500 nM | 500 to 5000 nM | < 500 nM |
| C[C@H](Nc1nc(-c2c[nH]c3ncc(Cl)cc23)ncc1N)c1ccc(F)cc1 [Compound 423] | < 500 nM | 500 to 5000 nM | < 500 nM |
| C[C@@H](C(=O)NCC(F)(F)F)N(C)c1nc(-c2c[nH]c3ncc(Cl)cc23)ncc1C(F)(F)F [Compound 424] | < 500 nM | 500 to 5000 nM | < 500 nM |
| C[C@H](Nc1cc(C(=O)N(C)C)nc(-c2c[nH]c3ncc(Cl)cc23)n1)c1ccc(F)cc1 [Compound 425] | < 500 nM | 500 to 5000 nM | < 500 nM |
| C[C@H](Nc1nc(-c2c[nH]c3ncc(Cl)cc23)ncc1F)C(=O)NCCNC(=O)OC(C)(C)C [Compound 426] | < 500 nM | 500 to 5000 nM | < 500 nM |
| CCc1cnc(Cl)nc1-c1c[nH]c2ncc(Cl)cc12 [Compound 428] | < 500 nM | 500 to 5000 nM | 500 to 5000 nM |
| CNc1nc(-c2c[nH]c3ncc(Cl)cc23)nc(N[C@@H](C)C(=O)NCC(F)(F)F)c1C(C)C [Compound 432] | 500 to 5000 nM | 500 to 5000 nM | 500 to 5000 nM |
| C[C@H](Nc1nc(-c2c[nH]c3ncc(Cl)cc23)ncc1F)C(=O)NCCc1nc2ccccc2[nH]1 [Compound 459] | 500 to 5000 nM | – | 500 to 5000 nM |
| C[C@H](Nc1nc(-c2c[nH]c3ncc(Cl)cc23)ncc1F)C(=O)NCCCN1CCCC1=O [Compound 460] | 500 to 5000 nM | – | 500 to 5000 nM |
| C[C@H](Nc1nc(-c2c[nH]c3ncc(Cl)cc23)ncc1F)C(=O)NCCSCc1c(Cl)cccc1Cl [Compound 462] | 500 to 5000 nM | – | 500 to 5000 nM |
| CCCC[C@H](C)NC(=O)[C@H](C)Nc1nc(-c2c[nH]c3ncc(Cl)cc23)ncc1F [Compound 463] | < 500 nM | – | 500 to 5000 nM |
